Literature values, collected in patent US20250152503A1, “IMPLANTABLE DEVICES FOR THE SUSTAINED DELIVERY OF AN OPIOID ANTAGONIST AND METHODS FOR TREATING INFLAMMATORY, NEUROINFLAMMATORY AND METABOLIC DISORDERS” (Delpor, Inc., priority 2022, published 2025).

How the values were obtained:
[1] = target: Toll-like receptor 4 (TLR4) (Homo sapiens, UniProt O00206+Q9Y6Y9)
[2] = 25° C.
[3] = oral, typical dose 50 mg/day

Toll-like receptor 4 (TLR4), sequence (O00206 24-839, species assumed): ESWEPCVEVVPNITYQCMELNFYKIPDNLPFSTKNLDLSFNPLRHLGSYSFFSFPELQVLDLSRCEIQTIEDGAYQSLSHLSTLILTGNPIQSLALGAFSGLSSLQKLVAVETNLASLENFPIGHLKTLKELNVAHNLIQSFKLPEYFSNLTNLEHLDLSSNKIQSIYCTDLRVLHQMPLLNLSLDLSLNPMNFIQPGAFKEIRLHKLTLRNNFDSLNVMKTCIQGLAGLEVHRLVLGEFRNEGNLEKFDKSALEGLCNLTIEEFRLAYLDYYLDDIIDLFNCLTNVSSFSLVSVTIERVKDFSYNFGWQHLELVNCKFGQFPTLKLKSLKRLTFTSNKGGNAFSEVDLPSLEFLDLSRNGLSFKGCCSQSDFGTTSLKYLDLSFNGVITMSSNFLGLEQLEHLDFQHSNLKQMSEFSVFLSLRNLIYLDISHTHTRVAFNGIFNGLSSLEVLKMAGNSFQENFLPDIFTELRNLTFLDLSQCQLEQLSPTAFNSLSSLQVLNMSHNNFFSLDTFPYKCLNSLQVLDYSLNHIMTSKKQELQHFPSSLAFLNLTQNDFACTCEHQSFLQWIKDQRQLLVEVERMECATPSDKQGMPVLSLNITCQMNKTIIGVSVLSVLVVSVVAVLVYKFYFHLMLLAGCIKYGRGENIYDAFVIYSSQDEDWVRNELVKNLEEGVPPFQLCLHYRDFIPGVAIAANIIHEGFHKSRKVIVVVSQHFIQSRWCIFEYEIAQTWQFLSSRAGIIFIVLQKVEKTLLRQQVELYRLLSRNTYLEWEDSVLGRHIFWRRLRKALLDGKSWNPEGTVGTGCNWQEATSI
Toll-like receptor 4 (TLR4), sequence (Q9Y6Y9 17-160 limits assumed, species assumed): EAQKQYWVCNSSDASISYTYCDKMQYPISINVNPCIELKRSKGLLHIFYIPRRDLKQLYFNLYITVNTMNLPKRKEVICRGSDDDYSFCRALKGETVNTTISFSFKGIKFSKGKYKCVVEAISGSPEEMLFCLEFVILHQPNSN

Compound	antagonism of TLR4 signaling [1]	reported aqueous solubility [2] [µg/mL]	average bioavailability [3]
C=CCN1CC[C@]23c4c5ccc(O)c4O[C@H]2C(=O)CC[C@]3(O)[C@H]1C5 [(+)-naloxone]	antagonize TLR4 signaling	–	–
O=C1CC[C@]2(O)[C@@H]3Cc4ccc(O)c5c4[C@]2(CCN3CC2CC2)[C@@H]1O5 [(+)-naltrexone]	antagonize TLR4 signaling	–	–
C=C1CC[C@@]2(O)[C@H]3Cc4ccc(O)c5c4[C@@]2(CCN3CC2CC2)[C@H]1O5 [nalmefene]	–	140	–
O=C1CC[C@@]2(O)[C@H]3Cc4ccc(O)c5c4[C@@]2(CCN3CC2CC2)[C@H]1O5 [naltrexone]	–	667	5-40%
(−)-nalmefene	antagonize TLR4 signaling	–	–
(−)-naloxone	antagonize TLR4 signaling	–	–
(−)-naltrexone	antagonize TLR4 signaling	–	–
